“Also recorded” adds a separate entry of the source.
Columns and labels:
[1] = system: adult PBMCs or neonatal CBMCs; experiment: HEK-Blue IFNα/β SEAP assay on supernatants of stimulated mononuclear cells; assay type: cell-based, human; conditions: for innate immune response in neonatal and/or paediatric blood: compared with adult blood, summary statement
Description: Isolation of mononuclear cells and monocytes—Primary PBMCs or CBMCs were isolated from healthy human blood or cord blood. Monocytes were isolated by negative selection using Monocyte Isolation Kit II (Miltenyi). […] Cells were cultured at 37° C., 5% CO2, 95% air in RPMI-1640, with stable 2.5 mM L-glutamine and 0.5 mM sodium pyruvate with 10% FBS (all from Sigma-Aldrich).
(§1) Poly(I:C) (5 μg/ml) (Invivogen), Poly(dA:dT) (5 μg/ml) (Sigma-Aldrich), 2′3′ cGAMP (10 μg/ml), 5′ triphosphate double stranded RNA (5′ ppp dsRNA) (2.5 μg/ml) and HSV-60 (2 μg/ml) (all from Invivogen) were transfected into PBMCs or CBMCs using TransIT-X2 (Mirus).
(§2) Measurement of cytokines—HEK Blue TNFα/IFNα/β Assays were performed as per the manufacturer's (Invivogen) instructions using Quanti-Blue Detection Reagent. SEAP levels were determined using a spectrophotometer plate reader at 630 nm. IFNα (3425-1H-6, Mabtech) and IP-10 (DY266, R&D Systems) were detected by sandwich ELISA. IFNα ELISA used pan specific IFNα antibodies, which allows detection of IFNα subtypes 1/13, 2, 4, 5, 6, 7, 8, 10, 14, 16 and 17. BioLegend LEGENDplex™ Human Inflammation Panel (13-plex) was carried out as per manufacturer's (Biolegend) instructions to determine levels of IFNγ, IL-10, IL-12p70 and IL-23. A BD LSR Fortessa cell analyser was used to acquire samples and BioLegend LEGENDplex™ software was used for analysis.

PBMCs or CBMCs [2] = experiment: IFNα sandwich ELISA on supernatants; assay type: cell-based, human; conditions: for IFNα secretion (ELISA): CBMCs compared with PBMCs, 8 or 24 h
Description: as §1, §2

PBMCs or CBMCs [3] = experiment: HEK-Blue TNFα assay on supernatants; assay type: cell-based, human; conditions: CBMCs compared with PBMCs; 4, 8 or 24 hours
Description: as §1, §2

PBMCs or CBMCs [4] = experiment: Quantitative RT-PCR of TNFα, IFNα and CXCL10 mRNA; assay type: cell-based, human; conditions: CBMCs vs PBMCs
Description: as §1
Quantitative RT-PCR—Total RNA from PBMCs or CBMCs was extracted using trizol extraction as previously described (16) and was reverse transcribed using MMLV Reverse Transcriptase (Promega) according to the manufacturer's protocol. This cDNA served as template for amplification of target genes, along with the ‘housekeeping’ gene βActin, by real-time PCR with SensiFast SYBR Green (Bioline) to determine the relative amounts of CXCL10, IFNα and TNFα mRNA. The ABI 7900HT system (Applied Biosystems) was used for real-time PCR, and the cycling threshold method (2^−(ΔΔCt)) was used for relative quantification by comparative method after normalization to βActin expression.

IRF7 = experiment: TransAM IRF7 activation assay on nuclear extracts; assay type: cell-based, human; conditions: CBMCs; LPS 15 min, CpG 1 h, Poly(I:C) transfection 1 h
Description: (§3) IRF3/7 activation—Active Motif TransAM™ IRF3 and IRF7 assays were carried out on nuclear extracts from PBMCs or CBMCs, harvested as per manufacturer's (Active Motif) instructions, to detect and quantify IRF3 or IRF7 activation.

IRF3 = experiment: TransAM IRF3 activation assay on nuclear extracts; assay type: cell-based, human; conditions: CBMCs
Description: as §3

PBMCs or CBMCs [5] = experiment: CXCL10 (IP-10) ELISA; assay type: cell-based, human; conditions: CBMCs compared with PBMCs
Description: as §1, §2

PBMCs or CBMCs [6] = experiment: BioLegend LEGENDplex Human Inflammation Panel; assay type: cell-based; conditions: CBMCs and PBMCs; Poly(I:C) 24 h, LPS 4 h, CpG ODN 24 h
Description: as §1, §2

[7] = system: mononuclear cells from cord blood, children's blood or adult blood; experiment: HEK-Blue IFNα/β and TNFα assays on mononuclear cells of cord blood, children and adults; assay type: cell-based, human; conditions: transfection 24 h, 4-24 months, 2-5 years, 6-11 years
Description: Umbilical cord blood samples were obtained from term births following normal pregnancy, labour and delivery at National Maternity Hospital (NMH), Holles St, Dublin 2. […] Venous blood from infants, children and adolescents of various ages was collected during elective surgical procedures where no indication of infection was present (such as hydrocele repair, umbilical hernia repair, onychocryptosis, orchipexy repair) in Our Lady's Children's Hospital Crumlin (OLCHC), Dublin 12. […] Volumes drawn were age and weight dependent, according to standard, approved guidelines. Ethics approval was obtained from the Ethics Committees of NMH and OLCHC and informed consent was obtained from each subject or their parent/guardian. Adult blood samples were from healthy adults, supplied by the Irish Blood Transfusion Service. • Poly(I:C), Poly(dA:dT) and cGAMP were obtained from Invivogen • Poly (dA:dT) is a repetitive synthetic double-stranded DNA sequence of poly(dA-dT)-poly(dT-dA) http://www.invivopen.com/poly-dadt-naked • Poly (I:C) comprises long strands of inosine poly(I) homopolymer annealed to strands of cytidine poly(C) homopolymer http://www.invivogen.com/polyic-hmw. • cGAMP is cyclic [G(2′,5′)pA(3′,5′)p]; Formula: […], 2Na Methodology
Isolation of mononuclear cells and monocytes—Primary PBMCs or CBMCs were isolated from healthy human blood or cord blood. Monocytes were isolated by negative selection using Monocyte Isolation Kit II (Miltenyi). Monocyte purity was assessed using CD14 staining and was routinely 85-95%. Cells were cultured at 37° C., 5% CO2, 95% air in RPMI-1640, with stable 2.5 mM L-glutamine and 0.5 mM sodium pyruvate with 10% FBS (all from Sigma-Aldrich).
as §1, §2

bovine PBMCs = experiment: Bovine IFN-γ ELISA on stimulated PBMCs; assay type: cell-based, cattle; conditions: calves <1 year old; ConA 1 μg/ml with or without LPS 100 pg/ml; 72 hours
Description: Bovine peripheral blood mononuclear cells were isolated from whole blood samples collected in 9m1 vacutainers containing Heparin anticoagulant. PBMCs were spun and separated using leucosep tubes (Cruinn) and a density gradient histopaque 1077 (Sigma-Aldrich) at a speed of 1200 g for 20 minutes. Red blood cell contamination was eliminated using sterile 0.25% sodium chloride (Baxter) as a lysis buffer. The cells were subsequently washed twice in PBS at a speed of 600 g for 10 minutes to remove impurities.
Cells were counted using a haemocytometer, microscope and trypan blue (Sigma Aldrich) and seeded at appropriate densities in tissue culture plates (Cruinn) containing media. The cells were incubated at 37° C. at 5% CO2 treated within hours of plating to avoid unwanted cell death.
When analysing the effects of IL-1β on T cell activation, cells were pre-treated with 250 μg/ml of IL-1 receptor antagonist (IL-1Ra) 40 minutes before stimulation with IL-1β (25 ng/ml). Cells were subsequently stimulated with concanavalin A (1 μg/ml) 1 hour after addition of IL-1β. Similarly, when analysing the effects of polydA:dT on T cell activation, cells were stimulated with polydA:dT (1 μg/ml) 1 hour before ConA treatment (1 μg/ml). LPS (100 pg/ml) primed cells were incubated with YVAD-FMK (10 μm), an inhibitor specific for caspase-1. After 40 minutes, the cells were stimulated with alum (50 μg/ml) for 24 hours and supernatants were then harvested and analysed by ELISA for IL-1β
Capture antibodies (50 μl/well), diluted in the appropriate buffers, were dispensed into the wells of high binding plates (Greiner Bio-One) and incubated overnight at room temperature or 4° C. For analysis of IL-17, the ELISA plates were pre-coated with capture antibody by the manufacturing before delivery. The wells were washed with PBS/Tween 3 times and the plates were then incubated with 150 μl of blocking buffer for 1 hour at room temperature. The plates were washed again before supernatant (neat or diluted) and recombinant standards were added for 1 hour at room temperature. Following this, the plates were washed and 50 μl of detection antibody was added to the wells for a period of 1 or 2 hours at room temperature. After washing, 50 μl diluted streptavidin-HRP was added to the plate for between 30 minutes and 1 hour. After the final wash, 50 μl of 3,3′-, 5,5′-Tetramethylbenzidine (TMB) substrate was added and the plates were incubated in the dark. The reaction was stopped by addition of 1M sulphuric acid and the absorbance readings were measured at 450 nm using a microtitre plate reader. The cytokine concentrations were calculated using a linear regression standard curve from recombinant cytokines of known concentration. Skanit™ software was used to estimate values.

For Nc1nc2c(ncn2[C@@H]2O[C@@H]3COP(=O)(O)O[C@H]4[C@@H](O)[C@H](n5cnc6c(N)ncnc65)O[C@@H]4COP(=O)(O)O[C@@H]2[C@@H]3O)c(=O)[nH]1 [cGAMP, cyclic [G(2′,5′)pA(3′,5′)p]], the “innate immune response in neonatal and/or paediatric blood” value [1] was “robust innate immune response in neonatal and/or paediatric blood”, the “IFNα secretion (ELISA)” value (PBMCs or CBMCs [2]) was “CBMCs responded equally well or with enhanced IFNα-production when compared with PBMCs” and the “level of IFNα produced, relative to Poly(I:C) or Poly(dA:dT)” value (PBMCs or CBMCs [2]; adult and neonatal cells) was “lower than that in response to either Poly(I:C) or Poly(dA:dT)”. For the same compound, the TNFα production (PBMCs or CBMCs [3]) was “significantly more TNFα production from neonatal cells than from adult cells”.

In the case of “polyinosinic-polycytidylic acid [Poly(I:C)]”, the “innate immune response in neonatal and/or paediatric blood” value [1] is reported as “robust innate immune response in neonatal and/or paediatric blood”, the “type I IFN (IFNα/β) production” value ([1]; neonatal CBMCs compared with adult PBMCs, stimulation 4, 8 or 24 h) is reported as “no inhibition of type I IFN production in CBMCs when compared to PBMCs” and the “IFNα secretion (ELISA)” value (PBMCs or CBMCs [2]) is reported as “equivalent or enhanced CNA sensor responses in neonates compared to adults”. The TNFα production (PBMCs or CBMCs [3]) was “significantly more TNFα production from neonatal cells than from adult cells”, the “CXCL10 mRNA expression” value (PBMCs or CBMCs [4]; 4 h) was “no inhibition of transcription” and the “IFNα mRNA expression” value (PBMCs or CBMCs [4]; 24 h) was “no inhibition of transcription”. For the same compound, the “TNFα mRNA expression” value (PBMCs or CBMCs [4]; CNA 4 h, LPS 2 h) was “no significant difference in TNFα levels”, the IRF7 activation (IRF7) was “not significantly activated” and the “increase in IRF3 activation above basal levels” value (IRF3) was roughly 80%. The CXCL10 protein secretion (PBMCs or CBMCs [5]) was “no significant difference in the CXCL10 response between PBMCs or CBMCs”, the IFNγ (PBMCs or CBMCs [6]) was “induces Th1 polarising IL-12p70 and IFNγ in CBMCs; also recorded: significantly increased in CBMCs compared to PBMCs; also recorded: neonates produced significantly higher levels of both IL-12p70 and IFNγ” and the IL-10 (PBMCs or CBMCs [6]) was “low but detectable, with no significant difference between adult and cord blood cells noted; also recorded: no difference in levels of anti-inflammatory IL-10 or Th17-polarising IL-23 between neonates and adults”. The IL-12p70 (PBMCs or CBMCs [6]) was “induces Th1 polarising IL-12p70 and IFNγ in CBMCs; also recorded: increased in CBMCs compared to PBMCs; also recorded: significantly enhanced response to Poly(I:C) transfection was found in CBMCs compared to PBMCs; also recorded: neonates produced significantly higher levels of both IL-12p70 and IFNγ”, the IL-23 (PBMCs or CBMCs [6]) was “low but detectable, with no significant difference between adult and cord blood cells noted; also recorded: no difference in levels of anti-inflammatory IL-10 or Th17-polarising IL-23 between neonates and adults” and the “TNFα production across age groups” value [7] was “maintenance of cord blood responsiveness to CNA was also observed for both Poly(I:C) and Poly(dA:dT)-induced TNFα production to the age of 24 months”. The “production of type I IFN across age groups” value [7] was “maintained throughout childhood; also recorded: maintained up to the age of two”.

CCCc1nc2c(N)nc3ccccc3c2s1 [CL075, reference compound] was tested, and the TNFα production (PBMCs or CBMCs [3]) was “no significant difference in TNFα production”.

With “interleukin 1: cytokine interleukin 1 added with ConA [reference compound]” the “IFN-γ secretion by ConA stimulated bovine PBMCs” value (bovine PBMCs) was “enhanced IFN production”.
